In one assay the target is T1, human plasma renin (Homo sapiens, UniProt P00797).
T1 construct: determined against human plasma renin; from tissue; host or cells: human plasma
T1 sequence (P00797 67-406): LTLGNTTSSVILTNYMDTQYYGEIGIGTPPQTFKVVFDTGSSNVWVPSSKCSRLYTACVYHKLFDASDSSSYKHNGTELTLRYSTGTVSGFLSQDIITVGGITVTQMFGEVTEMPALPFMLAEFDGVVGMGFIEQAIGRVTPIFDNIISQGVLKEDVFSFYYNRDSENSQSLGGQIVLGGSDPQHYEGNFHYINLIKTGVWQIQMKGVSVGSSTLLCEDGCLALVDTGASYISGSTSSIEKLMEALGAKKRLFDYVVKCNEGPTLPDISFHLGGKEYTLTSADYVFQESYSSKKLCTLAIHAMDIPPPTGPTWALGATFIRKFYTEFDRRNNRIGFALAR
Put plainly: Renin-inhibitory potency against human plasma renin. The format is biochemical. As for the experimental part:
Renin-inhibitors potencies were determined against human plasma renin and are expressed as IC50 values.

A further assay deals with hog renin. As to conditions: after the injection of hog renin into nephrectomized rats; cited from earlier work.

Square brackets hold non-standard residues; d marks the D form. Peptide text beside a SMILES is read from it. * marks the point of attachment. Sta = CC(C)C[C@H](N)[C@@H](O)CC(=O)O; Isovaleryl = CC(C)CC(=O)*

As usually defined, the IC50 is the concentration that inhibits the measured activity by half. The low end stands for higher potency, the high end for lower potency. For `CCCC[C@H](NC(=O)[C@H](Cc1ccccc1)N[C@@H]1CN2CCC1CC2)C(=O)N[C@@H](CC1CCCCC1)[C@@H](O)C(=O)OCC` [Example 30, N^α -(Quinuclidin-3(S)-yl)Phe-Nle-norACHPA-OEt], the IC50 on human plasma renin turned out to be 91 nM. Still for that read-out and setting: the figure for “N^α -(Quinuclidin-3(S)-yl)Phe-His-Cal[CH(OH)CH2 ]Val-NH-n-butyl [Example 27]” is 1.4 nM.

Take `CCCC[C@H](NC(=O)[C@H](Cc1ccccc1)N[C@@H]1CN2CCC1CC2)C(=O)N[C@@H](CC1CCCCC1)[C@@H](O)CC(=O)N[C@H](C(=O)NCc1ccncc1)[C@@H](C)CC` [Example 20, N^α -(quinuclidin-3-yl)Phe-Nle-ACHPA-Ile-AMP]: on human plasma renin, the IC50 was 5 nM.

Compound `CCCC[C@H](NC(=O)[C@H](Cc1ccccc1)N(C)[C@@H]1CN2CCC1CC2)C(=O)N[C@@H](CC1CCCCC1)[C@@H](O)CC(=O)N[C@H](C(=O)NCc1ccncc1)[C@@H](C)CC` [Example 21, N^α -Methyl-N^α -(quinuclidin-3(S)-yl)Phe-Nle-ACHPA-Ile-NHCH2 (pyridin-4-yl)] returned an IC50 against human plasma renin of 150 nM. The same measure, in the same setting: for “N^α -[(pyridin-2-yl)methyl]Phe-His-ACHPA-Ile-NHCH2 (pyridin-4-yl) [Example 31]” the value was 7 nM; for “[N^α -(N-Methylquinuclidin-3(S)-yl)Phe-His-ACHPA-Ile-NH-CH2 -(pyridin-4-yl)]^+ I^- [Example 23]”, 1.7 nM; for “N^α -(Quinuclidin-3-yl)Phe-His-ACHPA-Ile-NHCH2 (pyridin-4-yl) [Example 24]”, 2 nM. In the case of `CC(C)CC(=O)N[C@H](C(=O)N[C@H](C(=O)N[C@@H](CC(C)C)[C@@H](O)CC(=O)N[C@@H](C)C(=O)N[C@@H](CC(C)C)[C@@H](O)CC(=O)O)C(C)C)C(C)C` [pepstatin] (Isovaleryl-VV[Sta]A[Sta]-OH), the “blood pressure in vivo” value with hog renin is “reduces blood pressure in vivo”.

The record behind these values is patent publication US5049548A, “Renin-inhibitory di-, tri-, and tetrapeptides” (Merck & Co., Inc., priority 1989, dated 1991).
